These results are taken from patent US9056111B1, “Selective efflux inhibitors and related pharmaceutical compositions and methods of treatment” (STC.UNM, priority 2011, dated 2015).

Data set [1] concerns ABCG2 over-expressing Igrov1/T8 tumors. Nature of the data set: ABCG2 resistant Igrov1/T8 tumor xenograft, combination with topotecan. It is filed as in vivo, CB-17 SCID mice. Here is the method:
Specific-pathogen-free adult CB-17 female SCID mice (5-6 weeks of age) weighing 20-25 g, are purchased. Briefly, ABCG2 over-expressing Igrov1/T8 cells are injected (5×10^6 cells/mouse). Prior to injection, Igrov1/T8 cells are maintained in topotecan in order to assure continuous expression of ABCG2. Tumors are allowed to grow for 3-4 weeks or until tumor volumes are greater than ˜100 cubic millimeters, at which time they are stratified into treatment groups. Treatment is administered and we observe the size of the tumor and weight of the mouse over a 7 day period. At the end of 7 days, we: 1) sacrifice the animal; 2) measure and weigh the tumor (if present); 3) analyze the histology of the tumor as well as other organs for evidence of toxicity; and 4) measure the expression of ABCG2 receptors on the tumor to determine if in vivo growth has altered ABCG2 expression. In our initial studies, we have generally observed high survival at 4 weeks (>90%) which escalates rapidly with near 100% mortality by 6 weeks. This approach is well described elsewhere.^9
Tumor-bearing mice were injected with either 150 nM TPT, 100 nM SID 88095709 (probe resupply), or 500 nM SID 85752814 (original SMR hit).
Igrov1/T8 cells were injected into the hind limbs of CB-17 SCID mice at a concentration of 1×10^7 cells in 200 μL, n of 3 per condition. The tumor was grown until the volume was in the range of 75 mm^3 to 250 mm^3. […] Injections were repeated daily and the size of the tumor was determined as a fraction of the starting size. After four days the mice were sacrificed and any recurring tumor was verified by light microscopy examination of histological sections. Mice were studied and maintained in accordance with guidelines of our Institutional Animal Research Committee at UNM HSC.

In data set [2] the test system is Jurkat-DNR cells. Briefly: Direct cytotoxicity (Toxic Dose 50) without chemotherapeutic. The settings on record: Jurkat-DNR cells, inhibitor without chemotherapeutic. Here is the method:
Cells (ABCB1, Jurkat-DNR or ABCG2 Ig-MXP3) are incubated with the test compound (3 order of magnitude concentration range) over a 3-day and 7-day period in the presence of the inhibitor and chemotherapeutic (ABCB1, DNR or ABCG2 MTX), such that a cell concentration of at least 1×10^5 cells/mL is maintained. Cell viability is determined by trypan blue staining and enumeration under light microscopy. […] A chemoreversal index (Chemoreversal 50, CR50) is determined from the viability assessment. Using a similar approach, a direct cytotoxicity index (Toxic Dose 50, TD50) is determined by assessment of cell death of cells grown in media alone.
Cells (ABCB1, Jurkat-DNR or ABCG2 Ig-MXP3) were incubated with the test compound in a 3 order of magnitude concentration range over three and seven day periods in the presence of the inhibitor and chemotherapeutic (ABCB1, 100 nM DNR or ABCG2 30 nM MTX), such that a cell concentration of at least 1×10^5 cells mL^−1 was maintained. Cell viability was determined by trypan blue staining and enumeration under light microscopy. […] A chemoreversal index (Chemoreversal 50, CR50) was determined from the viability assessment. Using a similar approach, a direct cytotoxicity index (Toxic Dose 50, TD50) was determined by assessment of cell death of cells grown in media alone.

The target of data set [3] is T1, ABCB1 / ABCG2 (Homo sapiens, UniProt Q9UNQ0).
T1 sequence (Q9UNQ0 1-655): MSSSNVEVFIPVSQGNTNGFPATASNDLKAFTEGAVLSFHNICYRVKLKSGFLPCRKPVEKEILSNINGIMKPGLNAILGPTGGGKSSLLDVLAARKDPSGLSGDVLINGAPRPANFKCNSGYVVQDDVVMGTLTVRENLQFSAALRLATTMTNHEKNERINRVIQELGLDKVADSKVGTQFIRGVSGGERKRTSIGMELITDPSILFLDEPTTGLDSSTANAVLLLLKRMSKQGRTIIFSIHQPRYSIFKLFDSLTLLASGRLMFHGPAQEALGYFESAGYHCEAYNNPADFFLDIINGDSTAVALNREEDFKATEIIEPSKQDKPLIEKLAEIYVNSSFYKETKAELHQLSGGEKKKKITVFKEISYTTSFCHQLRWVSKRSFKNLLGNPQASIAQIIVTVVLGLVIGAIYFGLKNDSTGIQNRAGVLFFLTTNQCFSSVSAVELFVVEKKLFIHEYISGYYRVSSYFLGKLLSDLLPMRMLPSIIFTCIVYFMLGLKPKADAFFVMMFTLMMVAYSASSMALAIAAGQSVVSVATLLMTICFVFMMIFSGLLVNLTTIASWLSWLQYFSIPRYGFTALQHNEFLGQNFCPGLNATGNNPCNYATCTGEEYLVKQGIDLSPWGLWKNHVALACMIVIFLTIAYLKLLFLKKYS
Nature of the data set: JC-1 efflux inhibition dose response, flow cytometry, Ig-MXP3 cells. As to conditions: human, probe JC-1 (1 µM), ~Fold G2 Selective (B1/G2), quotient of average ABCB1 IC50 and average ABCG2 IC50, efflux assay. The method in brief: (§1)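 Ig-MXP3 (ABCG2) and Jurkat-DNR (ABCB1) cells, run separately, are pre-stained with 1 μM JC-1 and added to compound in PBS; retained dye is read by high-throughput flow cytometry with time-gated analysis.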

The test system of data set [4] is Ig-MXP3 cells. Briefly: Direct cytotoxicity (Toxic Dose 50) without chemotherapeutic. It is filed as cell-based. The settings on record: Ig-MXP3 cells, inhibitor without chemotherapeutic.
Data set [5] concerns the target ABCB1 (Homo sapiens, UniProt P08183). Briefly: JC-1 efflux inhibition dose response, flow cytometry, Jurkat-DNR cells. The settings on record: for IC50: IC50 ABCB1 (efflux inhibition of JC-1 substrate), Jurkat-DNR cells over-expressing ABCB1, averages of two to four replicates. The method in brief: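 Jurkat-DNR cells pre-stained with 1 μM JC-1 were incubated with compound (final 50 μM to 69 nM, […]) at 1×10^6 cells/mL, rotated 30 min at 25° C. Retained JC-1 read by flow cytometry (488 nm excitation, 530/40 nm emission). Curves fitted to a four-parameter logistic.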

For data set [6], the system named is parental Igrov1 cells. Briefly: Topotecan killing of parental cells. Format: cell-based. As to conditions: Homo sapiens, IGROV-1.
Data set [7] has as its system resistant Igrov1/T8 cells. Nature of the data set: Topotecan killing of resistant cells. Format: cell-based. As to conditions: Homo sapiens, IGROV-1.
The test system of data set [8] is ABCG2 over-expressing Ig-MXP3 cells. Nature of the data set: Chemoreversal assay: potentiation of mitoxantrone (MTX) killing. It is filed as cell-based. As to conditions: Ig-MXP3 cells, constant 30 nM MTX, varied inhibitor dose; read-out: CR50 ABCG2.
The target in data set [9] is T2, ABCG2 (Homo sapiens, UniProt Q9UNQ0).
T2 sequence (Q9UNQ0 1-655): T1 sequence (Q9UNQ0 1-655)
Briefly: JC-1 efflux inhibition dose response, flow cytometry, Ig-MXP3 cells. The method in brief: as §1

The subject of data set [10] is ABCB1 over-expressing Jurkat-DNR cells. Nature of the data set: Chemoreversal assay: potentiation of daunorubicin (DNR) killing. It is filed as cell-based. The settings on record: constant 100 nM DNR, varied inhibitor dose, read-out: CR50 ABCB1.

SMILES strings stand for the structures. Values joined by “and” are separate entries in the source; they are usually repeats but may differ in a detail not shown here. Equal values may be shown once. “Also recorded” adds a separate entry of the source.

Sequence of ABCB1 (P08183 whole entry): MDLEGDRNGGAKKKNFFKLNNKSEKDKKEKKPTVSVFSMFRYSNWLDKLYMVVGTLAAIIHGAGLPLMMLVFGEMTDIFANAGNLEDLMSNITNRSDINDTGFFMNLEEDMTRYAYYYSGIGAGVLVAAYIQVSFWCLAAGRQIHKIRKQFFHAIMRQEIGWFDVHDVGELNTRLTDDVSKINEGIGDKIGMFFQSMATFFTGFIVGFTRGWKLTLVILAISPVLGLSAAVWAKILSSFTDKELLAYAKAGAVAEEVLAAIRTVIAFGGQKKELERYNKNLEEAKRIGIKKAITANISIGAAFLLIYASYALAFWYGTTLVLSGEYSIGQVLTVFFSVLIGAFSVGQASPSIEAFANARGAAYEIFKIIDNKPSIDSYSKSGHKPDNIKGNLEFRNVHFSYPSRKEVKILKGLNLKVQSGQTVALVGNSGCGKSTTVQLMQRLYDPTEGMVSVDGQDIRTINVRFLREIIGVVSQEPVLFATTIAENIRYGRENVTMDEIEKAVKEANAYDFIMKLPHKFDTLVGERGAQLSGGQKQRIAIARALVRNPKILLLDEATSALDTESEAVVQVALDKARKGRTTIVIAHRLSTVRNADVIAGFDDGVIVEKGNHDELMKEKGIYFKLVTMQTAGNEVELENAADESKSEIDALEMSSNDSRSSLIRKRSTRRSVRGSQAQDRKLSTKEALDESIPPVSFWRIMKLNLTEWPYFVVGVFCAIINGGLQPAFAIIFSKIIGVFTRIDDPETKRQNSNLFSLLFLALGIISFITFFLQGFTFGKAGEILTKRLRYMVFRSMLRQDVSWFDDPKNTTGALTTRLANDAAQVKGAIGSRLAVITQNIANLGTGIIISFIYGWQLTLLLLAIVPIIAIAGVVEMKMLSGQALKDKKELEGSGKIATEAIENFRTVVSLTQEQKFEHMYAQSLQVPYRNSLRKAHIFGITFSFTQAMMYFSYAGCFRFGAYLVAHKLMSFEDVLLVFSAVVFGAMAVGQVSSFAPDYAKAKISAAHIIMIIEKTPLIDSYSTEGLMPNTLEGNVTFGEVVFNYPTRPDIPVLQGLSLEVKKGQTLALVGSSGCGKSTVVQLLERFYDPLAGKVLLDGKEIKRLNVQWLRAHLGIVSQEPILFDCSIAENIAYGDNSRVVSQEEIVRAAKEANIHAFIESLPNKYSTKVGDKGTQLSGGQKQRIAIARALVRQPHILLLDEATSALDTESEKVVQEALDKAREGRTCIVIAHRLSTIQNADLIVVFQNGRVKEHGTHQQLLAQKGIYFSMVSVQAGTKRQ

For `COc1cccc(-c2cc3nc(C)c(C)c(N4CCN(Cc5ccoc5)CC4)n3n2)c1` [SID 97301789], the “Tumor size reduced by” value in [1] (100 nM topotecan + 100 nM compound intra-tumorally every 24 hours, 5 days (120 hours), n=5) came to 55%. In addition, the “tumor size, inhibitor alone” value in [1] (inhibitor alone (100 nM or 500 nM as printed), Example 3) is “No reduction in size”. In addition, in data set [2], the “TD50 ABCB1” value is greater than 100 µM. Further, in data set [3], the selectivity ratio at 30 min was 233. The “TD50 ABCG2” value in data set [4] was greater than 100 µM. In addition, the “efflux inhibition activity ABCB1” value in [5] (JC-1 efflux, Jurkat-DNR) is recorded as “abolished activity”.

For the compound `CC[C@@]1(O)C(=O)OCc2c1cc1n(c2=O)Cc2cc3c(CN(C)C)c(O)ccc3nc2-1` [Topotecan, reference compound], the results for the EC50 in data set [6] and in [7] were 7 nM and 311 nM, respectively. Moreover, in [1] (100 nM topotecan alone, Example 3), the “tumor size, topotecan alone” value was “No reduction in size”. In addition, in [1] (150 nM TPT, 100 nM SID 88095709 or 500 nM SID 85752814 alone, listed as TPT), the “tumor size, single agent” value is reported as “remained the same or increased; also recorded: did not affect the growth of tumors”.

Turning to `O=C(c1ccoc1)N1CCN(c2cc(-c3ccoc3)nc3cc(-c4ccccc4)nn23)CC1` [Compound 61], the EC50 in data set [8] was 760 nM; in [10], 420 nM. In data set [2], the “TD50 ABCB1” value was determined as 7.33 µM. Besides, in data set [3], the selectivity ratio at 30 min came out at 1.1. Also, the values for the IC50 in [9] and in data set [5] were 1400 nM and 1.6 µM, respectively. Moreover, in data set [4], the “TD50 ABCG2” value amounted to 18.30 µM.

As to `CC(=O)N1CCN(c2cc(-c3ccco3)nc3cc(-c4ccccc4)nn23)CC1` [Compound 74], the EC50 in data set [8] turned out to be 930 nM; in [10] it was 190 nM. Besides, the “TD50 ABCB1” value in data set [2] was 10.10 µM. In addition, the selectivity ratio at 30 min in data set [3] was 7. Besides, the IC50 in data set [9] was determined as 520 nM; in [5] it was 3.64 µM. Besides, in data set [4], the “TD50 ABCG2” value is greater than 100 µM.

For `COc1ccccc1-c1cc(N2CCN(C(=O)c3ccoc3)CC2)n2nc(-c3ccccc3)cc2n1` [Compound 44], the EC50 in data set [8] stood at 680 nM; in data set [10], 170 nM. Moreover, the “TD50 ABCB1” value in data set [2] turned out to be 3.73 µM. Besides, in data set [3], the selectivity ratio at 30 min worked out at 1.2. Moreover, the IC50 is 3660 ± 2540 nM in [9]; 4.52 µM and 4.62 µM in [5]. In data set [4], the “TD50 ABCG2” value was found to be 7.62 µM.
